Data set [1] in a line: Plasma pharmacokinetics of Rc in rats after repeated iv injection. The class given is in vivo. The settings on record: rat plasma, Rc 3 mg/kg/day iv for 5 days. The procedure: The rats were randomly divided into the control and Rc groups. The Rc group was injected with Rc solution (3 mg/mL/kg, dissolved in saline) intravenously via the tail vein for 5 consecutive days. The control group received saline (1 mL/kg) for 5 consecutive days via the tail vein. After 1 h following the last Rc treatment, valsartan was injected intravenously via the femoral vein at 1 mg/kg.

The nature of data set [2]: Protein binding in rat liver homogenate by rapid equilibrium dialysis. The class given is in vitro ADME. The settings on record: 10% liver homogenate, rat liver homogenate (10%). The procedure: The protein binding of Rb1, Rb2, and Rc (1 μM) in rat plasma and liver homogenate was determined using a rapid equilibrium dialysis kit (ThermoFisher Scientific Korea, Seoul, Korea) according to the manufacturer’s instructions. Briefly, 100 μL of rat plasma and 10% liver homogenate samples containing Rb1, Rb2, or Rc (1 μM) were added to the sample chamber of a semipermeable membrane (molecular weight cut-off 8000 Da) and 300 μL of HBSS was added to the outer buffer chamber. Four hours after incubation at 37 °C on a shaking incubator at 300 rpm, aliquots (50 μL) were collected from both the sample and buffer chambers and treated with equal volumes of fresh HBSS and plasma, respectively, to match the sample matrices. The matrix-matched samples (100 μL) were mixed with 300 μL of 80% ice-cold methanol containing berberine 0.05 ng/mL and 0.1% formic acid for 15 min.
Tissue protein binding was calculated using the following equations, and a dilution factor (D as a value of 10) was used since we used 10% liver homognenates. (2) Diluted free drug fraction fu^′= Drug concentration in buffer chamber/Drug concentration in liver homogenate chamber (3) Undiluted free drug fraction fu= 1/D/1/fu^′−1+1/D= 0.1/1/fu^′−1+0.1

For data set [3] the following is noted: repeated red ginseng extract 3 g/day ref 14, 41; cited from earlier work.
A short description of data set [4]: Plasma and liver distribution of Rc in rats after iv injection. The class given is in vivo, rat. The procedure:
The rats were injected with Rc solution (3 mg/mL/kg, dissolved in saline) via the tail vein. Blood samples were collected from the abdominal artery, and the liver tissue was immediately excised, gently washed with ice-cold saline, and weighed after the rats were euthanized at 2, 12, and 48 h after intravenous injection of Rc. The blood samples were centrifuged (16,000× g, 10 min, 4 °C) and the liver tissue samples were homogenized with four volumes of saline. Aliquots (50 μL each) of plasma and liver homogenates were stored at −80 °C until the analysis of the ginsenoside Rc.

Data set [5] has as its system UGT1A3. Also noted: method as in PMID 27462006. The settings on record: cited from earlier work.
Data set [6] has as its system OATP1B3. Conditions: cited from earlier work.
Data set [7] relates to OATP1B1. Conditions: cited from earlier work.
The subject of data set [8] is CYP2C9. Also noted: method as in PMID 30078466. The settings on record: cited from earlier work.
Data set [9] has as its system UGT2B7. Also noted: method as in PMID 27462006. The settings on record: cited from earlier work.

In general, AUC(0-inf) refers to the area under the concentration-time curve extrapolated to infinity. Usually MRT stands for the average time that molecules of a dose stay in the body. One may read the half-life as how long it takes for the measured level to halve. Broadly, the fraction unbound is the share of the substance not bound to proteins or other matrix. High values mean weak binding, low ones extensive binding. For the compound `CC(C)=CCC[C@](C)(O[C@@H]1O[C@H](CO[C@@H]2O[C@@H](CO)[C@H](O)[C@H]2O)[C@@H](O)[C@H](O)[C@H]1O)[C@H]1CC[C@]2(C)[C@@H]1[C@H](O)C[C@@H]1[C@@]3(C)CC[C@H](O[C@@H]4O[C@H](CO)[C@@H](O)[C@H](O)[C@H]4O[C@@H]4O[C@H](CO)[C@@H](O)[C@H](O)[C@H]4O)C(C)(C)[C@@H]3CC[C@]12C` [Rc, ginsenoside Rc], in data set [1], the AUC(0-inf) was 1060 ± 325 µM·h, the C0 was 34 ± 5.22 µM, the MRT came to 38.5 ± 5.11 h and the half-life is 27.5 ± 4.26 h. The AUC(0-t) in data set [1] (read-out: AUC24h) was 749 ± 185 µM·h. The compound further gave a fraction unbound at 4 h, 1 μM in [2] of 0.005. In data set [3], the “maximum concentration in human blood” value is 6.2 to 12.7 nM. Further, the “free Rc concentration in rat liver” value in data set [4] (estimated from concentration and protein binding) is 0.07 to 0.14 µM. Further, the Kp in [4] (rat, liver (versus plasma), rats, Rc 3 mg/kg iv, 2, 12 and 48 h, read-out: liver-to-plasma concentration ratio) is 0.13 to 0.2.
The compound `CC(C)=CCC[C@](C)(O[C@@H]1O[C@H](CO[C@@H]2OC[C@H](O)[C@H](O)[C@H]2O)[C@@H](O)[C@H](O)[C@H]1O)[C@H]1CC[C@]2(C)[C@@H]1[C@H](O)C[C@@H]1[C@@]3(C)CC[C@H](O[C@@H]4O[C@H](CO)[C@@H](O)[C@H](O)[C@H]4O[C@@H]4O[C@H](CO)[C@@H](O)[C@H](O)[C@H]4O)C(C)(C)[C@@H]3CC[C@]12C` [Rb2, ginsenoside Rb2] had a fraction unbound at 4 h, 1 μM in data set [2] of 0.004. In addition, in [3], the “maximum concentration in human blood” value was 6.2 to 12.7 nM.
As usually defined, the IC50 is the midpoint of a concentration-inhibition curve. `CC(C)=CCC[C@](C)(O)[C@H]1CC[C@]2(C)[C@@H]1[C@H](O)C[C@@H]1[C@@]3(C)CC[C@H](O[C@@H]4O[C@H](CO)[C@@H](O)[C@H](O)[C@H]4O)C(C)(C)[C@@H]3CC[C@]12C` [Rh2, ginsenoside Rh2]: the IC50 in data set [5] was 37.9 µM.
Consider `CC(C)=CCC[C@](C)(O[C@@H]1O[C@H](CO[C@@H]2O[C@H](CO)[C@@H](O)[C@H](O)[C@H]2O)[C@@H](O)[C@H](O)[C@H]1O)[C@H]1CC[C@]2(C)[C@@H]1[C@H](O)C[C@@H]1[C@@]3(C)CC[C@H](O[C@@H]4O[C@H](CO)[C@@H](O)[C@H](O)[C@H]4O[C@@H]4O[C@H](CO)[C@@H](O)[C@H](O)[C@H]4O)C(C)(C)[C@@H]3CC[C@]12C` [Rb1, ginsenoside Rb1], for which the fraction unbound at 4 h, 1 μM in data set [2] is 0.004. Also, the half-maximal inhibitory concentration (IC50) in data set [6] is 4.8 µM; in data set [7], 33.2 µM; in [8] it was 2.4 µM. Further, in [3], the “maximum concentration in human blood” value was 6.2 to 12.7 nM.
As to `CC(C)=CCC[C@](C)(O)[C@H]1CC[C@]2(C)[C@@H]1[C@H](O)C[C@@H]1[C@@]3(C)CC[C@H](O[C@@H]4O[C@H](CO)[C@@H](O)[C@H](O)[C@H]4O[C@@H]4O[C@H](CO)[C@@H](O)[C@H](O)[C@H]4O)C(C)(C)[C@@H]3CC[C@]12C` [Rg3, ginsenoside Rg3], the IC50 was 20.9 µM in data set [5] and 23.1 µM in data set [9].

Values taken from paper PMC7037682, “Herb–Drug Interaction of Red Ginseng Extract and Ginsenoside Rc with Valsartan in Rats” (Molecules, 2020).
